Source: PubChem BioAssay (NCI)
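GI50: concentration for 50% inhibition of growth. The concentration for full growth arrest is given as TGI.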

What was measured:
Assay in all cases: NCI anticancer screen, dose series, 384-well format
NCI-H226 lung = system: NCI-H226 lung
NCI-H23 lung = system: NCI-H23 lung
NCI-H322M lung = system: NCI-H322M lung
NCI-H522 lung = system: NCI-H522 lung
NCI/ADR-RES ovarian = system: NCI/ADR-RES ovarian
OVCAR-3 ovarian = system: OVCAR-3 ovarian
OVCAR-4 ovarian = system: OVCAR-4 ovarian
OVCAR-5 ovarian = system: OVCAR-5 ovarian
OVCAR-8 ovarian = system: OVCAR-8 ovarian
PC-3 prostate = system: PC-3 prostate
RPMI-8226 leukemia = system: RPMI-8226 leukemia
RXF 393 renal = system: RXF 393 renal
SF-268 CNS = system: SF-268 CNS
SF-295 CNS = system: SF-295 CNS
SF-539 CNS = system: SF-539 CNS
SK-MEL-2 melanoma = system: SK-MEL-2 melanoma
SK-MEL-28 melanoma = system: SK-MEL-28 melanoma
SK-OV-3 ovarian = system: SK-OV-3 ovarian
SN12C renal = system: SN12C renal
SNB-19 CNS = system: SNB-19 CNS
SNB-75 CNS = system: SNB-75 CNS
SW-620 colon = system: SW-620 colon
T-47D breast = system: T-47D breast
TK-10 renal = system: TK-10 renal
U251 glioblastoma = system: U251 glioblastoma
UACC-257 melanoma = system: UACC-257 melanoma
UACC-62 melanoma = system: UACC-62 melanoma
UO-31 renal = system: UO-31 renal

`N[C@@H]1CCCC[C@H]1N.O=C([O-])C(=O)[O-].[Pt+4]` showed a TGI (NCI-H226 lung) of 48.4 µM, a GI50 (NCI-H23 lung) of 8.68 µM and a TGI (NCI-H23 lung) of 28.8 µM. The GI50 (NCI-H322M lung) was > 100 µM, the TGI (NCI-H322M lung) was > 100 µM and the GI50 (NCI-H522 lung) was 10.1 µM. The TGI (NCI-H522 lung) was 21.7 µM, the GI50 (NCI/ADR-RES ovarian) was 20.2 µM and the TGI (NCI/ADR-RES ovarian) was > 100 µM. The GI50 (OVCAR-3 ovarian) was 8.13 µM, the TGI (OVCAR-3 ovarian) was 30.6 µM and the GI50 (OVCAR-4 ovarian) was 19.8 µM. The TGI (OVCAR-4 ovarian) was > 100 µM, the GI50 (OVCAR-5 ovarian) was 8.06 µM and the TGI (OVCAR-5 ovarian) was 47.8 µM. For the same compound, the GI50 (OVCAR-8 ovarian) was 6.15 µM, the TGI (OVCAR-8 ovarian) was > 100 µM and the GI50 (PC-3 prostate) was 8.53 µM. The TGI (PC-3 prostate) was > 100 µM, the GI50 (RPMI-8226 leukemia) was 0.403 µM and the TGI (RPMI-8226 leukemia) was 1.85 µM. It also gave a GI50 (RXF 393 renal) of 10.6 µM, a TGI (RXF 393 renal) of 23.7 µM and a GI50 (SF-268 CNS) of 11 µM. For the same compound, the TGI (SF-268 CNS) was > 100 µM, the GI50 (SF-295 CNS) was 27.4 µM and the TGI (SF-295 CNS) was > 100 µM. It also gave a GI50 (SF-539 CNS) of 6.07 µM, a TGI (SF-539 CNS) of 35.5 µM and a GI50 (SK-MEL-2 melanoma) of 75.9 µM. For the same compound, the TGI (SK-MEL-2 melanoma) was > 100 µM, the GI50 (SK-MEL-28 melanoma) was 14.6 µM and the TGI (SK-MEL-28 melanoma) was 63.9 µM. For the same compound, the GI50 (SK-OV-3 ovarian) was 31 µM, the TGI (SK-OV-3 ovarian) was > 100 µM and the GI50 (SN12C renal) was 7.27 µM. For the same compound, the TGI (SN12C renal) was > 100 µM, the GI50 (SNB-19 CNS) was 58.3 µM and the TGI (SNB-19 CNS) was > 100 µM. The GI50 (SNB-75 CNS) was 30 µM, the TGI (SNB-75 CNS) was > 100 µM and the GI50 (SW-620 colon) was 0.951 µM. The TGI (SW-620 colon) was 55.8 µM, the GI50 (T-47D breast) was 12.7 µM and the TGI (T-47D breast) was > 100 µM. The GI50 (TK-10 renal) was 11.2 µM, the TGI (TK-10 renal) was > 100 µM and the GI50 (U251 glioblastoma) was 8.83 µM. The TGI (U251 glioblastoma) was > 100 µM, the GI50 (UACC-257 melanoma) was 24.1 µM and the TGI (UACC-257 melanoma) was > 100 µM. It also gave a GI50 (UACC-62 melanoma) of 3.15 µM, a TGI (UACC-62 melanoma) of 25.1 µM and a GI50 (UO-31 renal) of 10.4 µM. The TGI (UO-31 renal) was 25.5 µM.
